Columns and labels:
[1] = Pharmacokinetic profile: cannabinoids in rat serum by LC-MS/MS, non-compartmental analysis; details: for amount identified and quantitated in serum samples: rats given doses of 5, 50, 300 and 600 mg/kg, LC-MS; for Tmax / AUC Inf / AUC Last / Cl / Cmax / T1/2 / Vd: rat serum
Protocol: The pharmacokinetic profile of the EU-GMP-certified Cannabis sativa L. with 15.6% THC and <1% CBD was assessed using 4 dose levels, 5, 50, 300, and 600 mg/kg. Dose levels were chosen in accordance with OECD 417 guidelines being lower than 1000 mg/kg but still high enough to allow for the identification and measurement of natural cannabinoids in the serum. Each dose level group consisted of 6 female Sprague-Dawley rats (8–12 weeks, 200–300 g) housed, cared and treated in the same conditions as the animals involved in the acute toxicity study. After gavage delivery of the compound, blood samples were collected, through a cardiac puncture, at 15 min, 30 min, 1 h, 2 h, 3 h, 4 h, 8 h, 12 h, 24 h, 48 h, and 72 h, respectively. The collected blood samples were then allowed to clot for 30 min at room temperature and centrifuged at 2000× g for 15 min at 4 °C. The separated serum samples were transferred immediately in microcentrifuge tubes and stored at −20 °C until THC and THCA quantification using LC-MS analysis were performed.
A method for simultaneous extraction and LC-MS/MS quantitation of 11 cannabinoids was developed and validated for the present study. Cannabinoid extraction from rat serum was performed according to the method described by Wakshlag et al., with modifications. Rat serum (40 μL) was mixed with 10 μL water: methanol (1:1) and 10 μL internal standard (200 ng/mL of CBD-d3) diluted in water: methanol (1:1). Proteins were precipitated by adding 80 μL ice-cold acetonitrile to each sample followed by vortex 2 min at 6 °C, 1000 rpm and centrifugation at 4000 rpm for 10 min at 4 °C. The supernatant (100 μL) was mixed with ultrapure water (100 μL) in another 1.5 mL microcentrifuge tube and centrifuged again at 4000 rpm for 10 min at 4 °C. The supernatant (100 μL) was transferred to another 1.5 mL microcentrifuge tube and placed in ice until LCMS analysis. Ten μL of the sample were injected into a Phenomenex Kinetex C18 (100 × 4.6 mm, 2.6 μm, 100 Å) HPLC separation column connected in the column compartment of an Agilent 1200 HPLC coupled to an Agilent 6410 electrospray-triple quadrupole mass spectrometer. A 10:1 post-column splitter was used. The column was equilibrated with mobile phase A (0.1% formic acid in water) and mobile phase B (0.1% formic acid in acetonitrile) at 50% B for 1 min. A linear gradient from 50% B to 90% B for 3 min was used and was held constant at 90% B for 6 min, then decreased to 50% B in 1 min and maintained at 50% B for 5 min. The flow rate was […], and the column temperature was 24 °C.
The mass spectrometer was operated in positive mode. The source parameters were a capillary voltage of 4000 V, a gas of temperature 325 °C, a gas flow of 8 L/min, and a nebulizer of 35 psi. The parameters of the mass spectrometer for each time and scan segment and the retention time for each compound are presented in Table 3.
The qualitative analysis of the chromatograms and mass spectra was performed by Agilent MassHunter Workstation Software Qualitative Analysis v.B.01.02 and the quantitative analysis by Agilent MassHunter Workstation Software Quantitative Analysis v.B.01.03. Linear calibration curves were obtained for all 11 cannabinoids using the relative response (peak area of each cannabinoid/peak area of internal standard) and the relative concentration (concentration of each cannabinoid/concentration of internal standard). A linear 7-point calibration curve with 1/×2 weighing and a concentration range of 5–1000 ng/mL in rat serum was employed for the quantitation of the serum samples collected in the present study. The analysis of carryover was performed by LC/MS analysis of a blank sample extracted from normal rat serum after LC/MS analysis of a sample extracted from rat serum fortified with 1000 ng/mL natural cannabinoids.

[2] = system: Scn1A mice; design: method as in PMID 34384142; details: cited from earlier work
[3] = system: seizure models with electric shocks; design: method as in PMID 34384142; details: doses of 10 and 30 mg/kg; cited from earlier work
[4] = system: CB1; design: method as in PMID 28861508; details: relative to THC; cited from earlier work
[5] = system: CB2; design: method as in PMID 28861508; details: cited from earlier work
[6] = system: CB2; design: method as in PMID 28861508; details: relative to THC; cited from earlier work
[7] = system: CB1; design: method as in PMID 28861508; details: suggests a weak agonist activity; cited from earlier work
[8] = oral 5 mg/kg Cannabixir Medium Flos (0.78 mg Δ9-THCA-A + Δ9-THC)
[9] = oral 50 mg/kg Cannabixir Medium Flos (7.8 mg Δ9-THCA-A + Δ9-THC)
[10] = oral 300 mg/kg Cannabixir Medium Flos (46.8 mg Δ9-THCA-A + Δ9-THC)
[11] = oral 600 mg/kg Cannabixir Medium Flos (93.6 mg Δ9-THCA-A + Δ9-THC)

CCCCCc1cc2c(c(O)c1C(=O)O)C=CC(C)(CCC=C(C)C)O2 (stereo not drawn) [CBCA, cannabichromenic acid]
amount identified and quantitated in serum samples [1]: low amounts

CCCc1cc2c(c(O)c1C(=O)O)C=CC(C)(CCC=C(C)C)O2 (stereo not drawn) [CBCVA, cannabichromevarinic acid]
frequency of convulsions [2]: increase frequency of convulsions

C=C(C)[C@@H]1CCC(C)=C[C@H]1c1c(O)cc(CCCCC)c(C(=O)O)c1O [CBDA, cannabidiolic acid]
amount identified and quantitated in serum samples [1]: low amounts

C=C(C)[C@@H]1CCC(C)=C[C@H]1c1c(O)cc(CCC)c(C(=O)O)c1O [CBDVA, cannabidivarinic acid]
frequency of convulsions [2]: increase frequency of convulsions

CCCCCc1cc(O)c(C/C=C(\C)CCC=C(C)C)c(O)c1 [CBG, Cannabigerol]
frequency of convulsions [2]: increase frequency of convulsions

CCCCCc1cc(O)c(C/C=C(\C)CCC=C(C)C)c(O)c1C(=O)O [CBGA, cannabigerolic acid]
effect on seizure models with electric shocks [3]: pro-convulsive
amount identified and quantitated in serum samples [1]: high amounts
frequency of convulsions [2]: increase frequency of convulsions

CCCCCc1cc(O)c2c(c1)OC(C)(C)[C@@H]1CCC(C)=C[C@@H]21 [Δ9-THC, Δ9-tetrahydrocannabinol]
Tmax [1, 8]: 0 h
Tmax [1, 9]: 0 h
AUC Inf [1, 10]: BQL
AUC Last [1, 10]: BQL
Cl [1, 10]: BQL
Cmax [1, 10]: BQL
T1/2 [1, 10]: BQL
Tmax [1, 10]: BQL
Vd [1, 10]: BQL
AUC Inf [1, 11]: 287.2334 ng·h/mL
AUC Last [1, 11]: 284.342 ng·h/mL
Cl [1, 11]: 5431.12 mL/min/kg
Cmax [1, 11]: 34.916 ng/mL
T1/2 [1, 11]: 7.080 h
Tmax [1, 11]: 0.25 h
Vd [1, 11]: 3328.818 L/kg
amount identified and quantitated in serum samples [1]: low amounts

CCCCCc1cc2c(c(O)c1C(=O)O)C1C=C(C)CCC1C(C)(C)O2 (stereo not drawn) [Δ9-THCA-A, Δ9-tetrahydrocannabinolic acid]
binding for CB1, times smaller than that of THC [4]: at least 62 times
AUC Inf [1, 8]: 260.802 ng·h/mL
AUC Last [1, 8]: 197.236 ng·h/mL
Cmax [1, 8]: 42.425 ng/mL
T1/2 [1, 8]: 5.3374 h
Tmax [1, 8]: 3 h
Vd [1, 8]: 23.0298 L/kg
AUC Inf [1, 9]: 3172.8488 ng·h/mL
AUC Last [1, 9]: 3163.1937 ng·h/mL
Cl [1, 9]: 40.972 mL/min/kg
Cmax [1, 9]: 404.16 ng/mL
T1/2 [1, 9]: 5.4189 h
Tmax [1, 9]: 3 h
Vd [1, 9]: 19.2193 L/kg
AUC Inf [1, 10]: 13,544.792 h*ng/mL
AUC Last [1, 10]: 13,323.57 h*ng/mL
Cl [1, 10]: 57.587 mL/min/kg
Cmax [1, 10]: 2787.617 ng/mL
T1/2 [1, 10]: 10.291 h
Tmax [1, 10]: 0.5 h
Vd [1, 10]: 51.298 L/kg
AUC Inf [1, 11]: 43,261.689 h*ng/mL
AUC Last [1, 11]: 40,371.48 h*ng/mL
Cl [1, 11]: 36.058 mL/min/kg
Cmax [1, 11]: 10,563.4 ng/mL
T1/2 [1, 11]: 10.988 h
Tmax [1, 11]: 0.25 h
Vd [1, 11]: 34.298 L/kg
amount identified and quantitated in serum samples [1]: high amounts
efficacy for CB2 [5]: no efficacy
binding for CB2, times smaller than THC [6]: ≥ 125 times
efficacy at CB1 (AMPc) [7]: slightly inhibited AMPc

Reference: paper PMC10223347, “Acute Toxicity and Pharmacokinetic Profile of an EU-GMP-Certified Cannabis sativa L. in Rodents” (Pharmaceuticals, 2023)
